Data from patent US11787839B2, “Targeting α2δ-1-bound glutamate receptors for treating diseases and disorders” (Board of Regents, The University of Texas System, priority 2017, dated 2023).
Entries after “also recorded” stand apart in the source; their conditions may differ.

Legend:
[1] = system: SHRs; experiment: PVN microinjection and recording of ABP and RSNA in SHRs; format: in vivo, rat
Procedure: PVN microinjection and recording of renal sympathetic nerve activity: Rats were anaesthetized via i.p. administration of a mixture of α-chloralose (60 mg kg-1) and urethane (800 mg kg-1) and mechanically ventilated with trachea cannulation. The arterial blood pressure (ABP) was monitored via a catheter placed in the left femoral artery, and heart rate (HR) was extracted from the pulsatile pressure wave. A retroperitoneal incision was made, and a branch of the left renal postganglionic sympathetic nerve was isolated under a surgical microscope. The renal sympathetic nerve was cut distally to ensure that afferent activity was not recorded. The ABP, HR and renal sympathetic nerve activity (RSNA) were recorded using a 1401-PLUS analogue-to-digital converter and Spike2 system (Cambridge Electronic Design, Cambridge, UK). After the brain was exposed, a microinjection pipette (tip diameter 20-30 μm) was advanced into the PVN in accordance with the stereotactic co-ordinates: 1.6-2.0 mm caudal to the bregma, 0.5 mm lateral to the midline and 7.0-7.5 mm ventral to the dura. The microinjection was performed using a Nanoject II (Drummond Scientific Company) and monitored using a surgical microscope as described previously (Li & Pan, 2006, 2007; Qiao et al. 2017). […] At the end of each experiment, the electrical background noise was measured after the proximal end of renal nerve was crushed at the end of each experiment. To determine the location of the injection site and diffusion of the drugs in the PVN, 5% rhodamine-labelled fluorescent microspheres (0.04 μm; Molecular Probes) were included in the injection solution. Rats were excluded from the data analysis if the microinjections were misplaced outside the PVN.

[2] = target: T1, NMDARs of spinal dorsal horn neurons (Mus musculus, UniProt P35436+P35438+Q01097); experiment: Electrophysiological recordings in mouse spinal cord slices (spared nerve injury); format: cell-based; conditions: Cacna2d1+/+ mice; bath application of AP5
T1 construct: from tissue; host or cells: mouse lumbar spinal cord slices (dorsal horn / lamina II neurons), WT and Cacna2d1 KO

[3] = system: rats treated with the Cacna2d1 vector; experiment: Withdrawal thresholds in rats overexpressing Cacna2d1 (lentiviral vector); format: in vivo, rat; conditions: Cacna2d1 vector rats; AP5, peptide, gabapentin intrathecal; memantine systemic
[4] = system: presynaptic NMDARs of spinal dorsal horn neurons; experiment: Spinal cord slice recordings, morphine-treated WT and Cacna2d1 KO mice
[5] = system: presynaptic NMDARs of spinal lamina II neurons; experiment: Spinal cord slice recordings, paclitaxel-treated WT and α2δ-1 KO mice; format: cell-based, mouse; conditions: bath AP5
[6] = target: T2, NMDARs of spinal dorsal horn neurons (Rattus norvegicus, UniProt P35439+Q00959+Q00960); experiment: Electrophysiological recordings in rat spinal cord slices (SNL, Cacna2d1 vector); format: cell-based; design: SNL-induced increase in (NMDAR-mediated) baseline frequency of mEPSCs: dose or concentration left out as unconfirmed; conditions: SNL rats, siRNA intrathecal
T2 construct: from tissue; host or cells: rat lumbar spinal cord slices (lamina II neurons) and synaptosomes made from them
T2 sequence (Q00959 20-1464 limits assumed, other chains not shown): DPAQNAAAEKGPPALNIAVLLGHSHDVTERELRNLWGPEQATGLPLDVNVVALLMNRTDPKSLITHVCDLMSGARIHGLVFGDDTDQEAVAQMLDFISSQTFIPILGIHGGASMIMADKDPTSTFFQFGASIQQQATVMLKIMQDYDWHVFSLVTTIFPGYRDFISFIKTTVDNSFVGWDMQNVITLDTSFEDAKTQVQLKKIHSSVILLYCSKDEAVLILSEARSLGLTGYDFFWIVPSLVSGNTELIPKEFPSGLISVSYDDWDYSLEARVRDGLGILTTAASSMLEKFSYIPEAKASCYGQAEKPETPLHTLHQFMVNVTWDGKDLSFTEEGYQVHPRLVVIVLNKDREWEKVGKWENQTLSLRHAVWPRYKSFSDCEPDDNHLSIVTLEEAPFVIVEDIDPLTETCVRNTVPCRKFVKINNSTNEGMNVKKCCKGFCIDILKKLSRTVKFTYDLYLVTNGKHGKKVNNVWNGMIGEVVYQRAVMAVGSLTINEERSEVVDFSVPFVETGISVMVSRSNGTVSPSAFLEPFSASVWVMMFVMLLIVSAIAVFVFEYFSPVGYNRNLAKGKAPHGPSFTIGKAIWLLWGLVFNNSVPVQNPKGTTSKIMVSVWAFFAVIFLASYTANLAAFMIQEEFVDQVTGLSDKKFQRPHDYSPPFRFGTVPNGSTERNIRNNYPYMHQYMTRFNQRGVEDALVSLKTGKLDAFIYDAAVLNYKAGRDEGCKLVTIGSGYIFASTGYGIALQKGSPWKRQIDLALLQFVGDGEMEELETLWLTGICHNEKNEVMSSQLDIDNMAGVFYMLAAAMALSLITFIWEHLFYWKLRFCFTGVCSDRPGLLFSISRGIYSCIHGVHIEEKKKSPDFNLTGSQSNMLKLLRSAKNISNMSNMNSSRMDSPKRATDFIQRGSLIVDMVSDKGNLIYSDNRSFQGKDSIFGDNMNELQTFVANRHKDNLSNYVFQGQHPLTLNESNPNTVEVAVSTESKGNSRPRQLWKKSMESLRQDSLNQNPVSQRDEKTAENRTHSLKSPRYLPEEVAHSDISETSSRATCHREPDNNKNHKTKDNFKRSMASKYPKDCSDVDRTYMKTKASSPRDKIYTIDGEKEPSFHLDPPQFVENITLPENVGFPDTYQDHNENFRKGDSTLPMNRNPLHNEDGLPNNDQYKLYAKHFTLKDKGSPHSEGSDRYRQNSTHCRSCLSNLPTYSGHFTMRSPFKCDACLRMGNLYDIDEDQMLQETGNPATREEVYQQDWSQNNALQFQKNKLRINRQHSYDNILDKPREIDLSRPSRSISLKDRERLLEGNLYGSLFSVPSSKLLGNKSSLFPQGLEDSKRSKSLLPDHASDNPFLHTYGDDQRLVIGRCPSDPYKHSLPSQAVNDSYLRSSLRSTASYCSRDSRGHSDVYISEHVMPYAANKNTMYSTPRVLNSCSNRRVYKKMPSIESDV
T2 sequence (Q00960 27-1482, other chains not shown): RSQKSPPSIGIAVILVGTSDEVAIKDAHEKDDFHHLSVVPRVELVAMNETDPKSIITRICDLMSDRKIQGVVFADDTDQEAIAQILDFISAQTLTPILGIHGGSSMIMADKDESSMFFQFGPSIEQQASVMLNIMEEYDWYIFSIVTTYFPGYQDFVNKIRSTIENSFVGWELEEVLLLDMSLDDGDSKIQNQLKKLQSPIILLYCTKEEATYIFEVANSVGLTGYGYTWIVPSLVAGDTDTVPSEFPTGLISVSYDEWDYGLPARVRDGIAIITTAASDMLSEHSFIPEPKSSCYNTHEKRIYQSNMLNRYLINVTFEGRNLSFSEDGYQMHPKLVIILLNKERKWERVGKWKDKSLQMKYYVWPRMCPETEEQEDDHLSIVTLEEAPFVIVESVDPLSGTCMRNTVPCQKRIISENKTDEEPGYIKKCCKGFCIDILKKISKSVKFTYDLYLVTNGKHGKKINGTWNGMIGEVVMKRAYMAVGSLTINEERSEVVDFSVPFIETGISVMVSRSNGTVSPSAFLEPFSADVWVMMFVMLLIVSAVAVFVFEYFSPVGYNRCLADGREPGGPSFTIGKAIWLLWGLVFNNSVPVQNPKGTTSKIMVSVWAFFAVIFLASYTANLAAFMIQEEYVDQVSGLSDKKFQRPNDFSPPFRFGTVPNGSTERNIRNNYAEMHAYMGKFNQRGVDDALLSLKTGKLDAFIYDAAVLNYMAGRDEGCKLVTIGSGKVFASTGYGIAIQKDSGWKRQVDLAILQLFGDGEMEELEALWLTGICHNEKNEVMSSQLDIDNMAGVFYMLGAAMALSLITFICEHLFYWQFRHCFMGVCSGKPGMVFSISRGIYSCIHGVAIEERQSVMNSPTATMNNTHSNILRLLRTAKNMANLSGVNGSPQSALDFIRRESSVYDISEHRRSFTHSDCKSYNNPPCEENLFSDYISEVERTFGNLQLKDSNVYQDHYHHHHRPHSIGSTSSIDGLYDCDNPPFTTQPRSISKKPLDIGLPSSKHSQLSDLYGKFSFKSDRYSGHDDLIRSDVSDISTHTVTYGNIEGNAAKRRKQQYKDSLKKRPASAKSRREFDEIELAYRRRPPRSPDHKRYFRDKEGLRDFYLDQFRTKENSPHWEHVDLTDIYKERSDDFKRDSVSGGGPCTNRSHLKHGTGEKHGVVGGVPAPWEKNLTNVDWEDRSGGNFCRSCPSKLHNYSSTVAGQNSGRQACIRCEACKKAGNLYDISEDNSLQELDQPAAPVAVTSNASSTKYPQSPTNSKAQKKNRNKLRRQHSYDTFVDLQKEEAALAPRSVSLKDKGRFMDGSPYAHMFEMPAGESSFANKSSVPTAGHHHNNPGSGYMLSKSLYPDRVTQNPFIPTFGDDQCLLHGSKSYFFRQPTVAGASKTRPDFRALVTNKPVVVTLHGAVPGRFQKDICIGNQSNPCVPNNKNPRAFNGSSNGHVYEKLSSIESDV
Procedure: Electrophysiological recordings in spinal cord slices: Anesthesia was induced in rats or mice with isoflurane and removed the lumbar spinal cords via laminectomy. […] The spinal cord slices were placed in a glass bottom chamber and continuously perfused with Krebs solution at 5.0 ml/min at 34° C. maintained by an inline solution heater and a temperature controller.
It becomes impossible to visualize neurons in other laminas in adult (>10-week-old) rodent spinal cords because of heavy laminar myelination. […] The tip of the puff pipette was placed 150 μm away from the recorded neuron.
In some experiments, the attached dorsal root was electrically stimulated with a stimulating electrode (0.5 ms, 0.6 mA and 0.1 Hz) to evoke monosynaptic excitatory postsynaptic currents (EPSCs). The α-amino-3-hydroxy-5-methyl-4-isoxazolepropionic acid receptor (AMPAR)-mediated EPSCs were recorded at a holding potential of −60 mV in the presence of 10 μM bicuculline and 1 μM strychnine, whereas NMDAR-mediated EPSCs were recorded at +40 mV in the presence of 10 μM 6-cyano-7-nitroquinoxaline-2,3-dione, 10 μM bicuculline, and 1 μM strychnine. […] All signals were recorded using an amplifier (MultiClamp700B; Axon Instruments Inc., Union City, Calif.), filtered at 1-2 kHz, digitized at 10 kHz, and stored for off-line analysis. Final spinal cord slice recordings were performed 3-4 weeks after the nerve injury or sham surgery. In all electrophysiological experiments, 3-5 animals were used for each recording protocol, and only 1 neuron was recorded in each spinal cord slice.

[7] = system: α2δ-1; experiment: α2δ expression in DRG and dorsal spinal cord after intrathecal siRNA (PCR, Western blot); format: in vivo, rat; conditions: SNL rats
Procedure: Li et al., 2004). α2δ-1-specific siRNA […] ID NO:49) or universal negative-control siRNA (#SIC001, Sigma-Aldrich, St. Louis, Mo.) was mixed with i-Fect (Neuromics, Edina, Minn.) to a final concentration of 400 mg/L for the intrathecal injections. α2δ-1-specific siRNA or negative control siRNA (4 μg/day for 4 days) was administered intrathecally in the SNL rats 3 weeks after surgery (Dolphin et al., 2012). Western immunoblotting analysis of α2δ-1: Western blotting was used to quantify the α2δ-1 expression level in the DRG and dorsal spinal cord. […] The supernatant was carefully collected, and the protein concentration was measured using a DC Protein Assay Kit (Bio-Rad, Hercules, Calif.). […] The specific protein band detected by using the α2δ-1 antibody was confirmed by assays of protein knockdown using the α2δ-1-specific siRNA in vivo. The protein bands were detected with ECL kit (Thermo Fisher Scientific, Waltham, Mass.), and protein band intensity was visualized and quantified using the Odyssey Fc Imager (LI-COR Biosciences, Lincoln, Nebr.). Quantitative PCR analysis: Total RNA was extracted from the DRG and spinal cord tissues at the L5 and L6 levels using TRIzol-chloroform and then treated with DNase I (Invitrogen). cDNA was prepared by using the SuperScript III First-Strand Synthesis Kit and then treated with RNase H (Invitrogen). […]

[8] = system: SNL rats; experiment: Withdrawal thresholds in spinal nerve ligation (SNL), sham and naive rats; format: in vivo, rat
Source text: Animal models of neuropathic pain: All surgical preparations and experimental protocols were approved by the Animal Care and Use Committee of the University of Texas MD Anderson Cancer Center and conformed to the National Institutes of Health guidelines for the ethical use of animals. Male Sprague-Dawley rats (8-10 weeks of age) were purchased from Harlan Laboratories (Indianapolis, Ind.). L5 and L6 spinal nerve ligation (SNL) were used as an experimental model of neuropathic pain (Cole et al., 2005). In brief, anesthesia was induced with 2-3% isoflurane, isolated the left L5-L6 spinal nerves and ligated them tightly with 6-0 silk sutures. The rats in the sham control group underwent the same surgical procedures except for the nerve ligation.
Intrathecal catheters were implanted in some SNL group rats during isoflurane-induced anesthesia 2-3 weeks after SNL surgery. Briefly, the anesthetized animal was placed on a stereotaxic frame, and a small incision was made at the back of its neck. Then, a small puncture was made in the atlanto-occipital membrane of the cisterna magna, and a PE-10 catheter (˜8 cm) was inserted with the caudal tip reaching the lumbar enlargement of the spinal cord (Luo et al., 2001; Patel et al., 2013). The rostral end of the catheter was exteriorized and closed the wound with sutures. The animals were allowed to recover for at least 4 days before the intrathecal injections were performed. Animals displaying signs of motor or neurological dysfunction were immediately killed with an intraperitoneal injection of phenobarbital (200 mg/kg) or by inhalation of CO2.
Behavioral assessments of nociception: To detect tactile allodynia, von Frey filaments were applied to the animals' left hindpaws (ipsilateral to the nerve injury). The rats or mice were placed individually in suspended chambers on a mesh floor. After an acclimation period of 30 min, a series of calibrated von Frey filaments were applied (Stoelting, Wood Dale, Ill.) perpendicularly to the plantar surface of the hindpaw with sufficient force to bend the filament for 6 s. Brisk withdrawal or paw flinching was considered a positive response. After a response, the filament of the next lower force was applied. In the absence of a response, the filament of the next greater force was applied. Using the up-down method, the tactile stimulus that produced a 50% likelihood of a withdrawal response was calculated (Fuller-Bicer et al., 2009).
To quantify the mechanical nociceptive threshold in the rats and mice (Patel et al., 2013; Dolphin et al., 2012), the paw pressure tests were conducted on the hindpaw with an analgesiometer (Ugo Basile, Varese, Italy). The device was activated by pressing a foot pedal, which triggered a motor that applied a constantly increasing force on a linear scale. […]

[9] = morphine-treated Cacna2d1 KO mice, AP5
[10] = morphine-treated WT mice, AP5 50 μM
[11] = paclitaxel-treated α2δ-1 KO mice

(2R)-amino-5-phosphonopentanoate [AP5]
ABP and RSNA, subsequent AP5 after α2δ-1Tat peptide ([1]; AP5 1.0 nmol, 50 nL into the PVN): failed to further decrease
ABP and RSNA, AP5 after prior Tat-fused control peptide ([1]; AP5 into the PVN): significantly decreased
nerve injury-increased amplitude of monosynaptic EPSCs evoked by dorsal root stimulation [2]: readily normalized
pain hypersensitivity induced by Cacna2d1 overexpression (tactile and pressure withdrawal thresholds) [3]: readily reversed
amplitude or PPR of monosynaptic EPSCs [4, 9]: had no effect
frequency or amplitude of mEPSCs [4, 9]: had no effect
PPR of evoked EPSCs [4, 10]: increased
amplitude of monosynaptic EPSCs [4, 10]: significantly reduced
baseline frequency of mEPSCs [4, 10]: substantially reduced
baseline PPR decreased by paclitaxel ([5]; WT mice): restored
paclitaxel-induced increase in the frequency of mEPSCs ([5]; WT mice): normalized
increased baseline amplitude of evoked EPSCs ([5]; paclitaxel-treated WT mice): normalized
PPR [5, 11]: had no effect
amplitude of evoked EPSCs [5, 11]: had no effect
frequency of mEPSCs [5, 11]: had no effect

CAAGCAACGAAGUUGUCUA [Cacna2d1-specific siRNA]
SNL-induced increase in puff NMDA currents of dorsal horn neurons ([6]; gabapentin 100 mM for 30 min): completely normalized
SNL-induced increase in (NMDAR-mediated) baseline frequency of mEPSCs ([6]; gabapentin for 30 min): completely normalized
expression level of α2δ-1 in the DRG and dorsal spinal cord [7]: reduced
pain hypersensitivity of SNL rats ([8]; SNL rats, peptides intrathecal or systemic, siRNA intrathecal): reduced pain hypersensitivity
withdrawal thresholds in naive control rats ([8]; naive control rats, intrathecal siRNA): had no effect; also recorded: No significant effects
